Data from the supplement of paper PMC13380429.

Tests used:
Details in all cases: 72 h
Caco-2 [1] = experiment: cell viability relative to DMSO; higher = less toxic
Calu-3 [2] = experiment: as above
HepG2 [3] = experiment: as above
U2OS [4] = experiment: as above
Vero E6 [5] = experiment: as above
Caco-2 [6] = experiment: relative viability EC50 (midpoint between 100% and the lowest measured viability); higher = less toxic
Calu-3 [7] = experiment: as above
HepG2 [8] = experiment: as above
U2OS [9] = experiment: as above
Vero E6 [10] = experiment: as above
Caco-2 [11] = experiment: drug sensitivity score (DSS) for viability; higher = more toxic; extreme values may be limits of the assay
Calu-3 [12] = experiment: as above
HepG2 [13] = experiment: as above
U2OS [14] = experiment: as above
Vero E6 [15] = experiment: as above

SMILES | cell viability (Caco-2 [1]; 1 nM) [%] | cell viability (Caco-2 [1]; 10 nM) [%] | cell viability (Caco-2 [1]; 100 nM) [%] | cell viability (Caco-2 [1]; 1000 nM) [%] | cell viability (Caco-2 [1]; 10000 nM) [%] | cell viability (Calu-3 [2]; 1 nM) [%] | cell viability (Calu-3 [2]; 10 nM) [%] | cell viability (Calu-3 [2]; 100 nM) [%] | cell viability (Calu-3 [2]; 1000 nM) [%] | cell viability (Calu-3 [2]; 10000 nM) [%] | cell viability (HepG2 [3]; 1 nM) [%] | cell viability (HepG2 [3]; 10 nM) [%] | cell viability (HepG2 [3]; 100 nM) [%] | cell viability (HepG2 [3]; 1000 nM) [%] | cell viability (HepG2 [3]; 10000 nM) [%] | cell viability (U2OS [4]; 1 nM) [%] | cell viability (U2OS [4]; 10 nM) [%] | cell viability (U2OS [4]; 100 nM) [%] | cell viability (U2OS [4]; 1000 nM) [%] | cell viability (U2OS [4]; 10000 nM) [%] | cell viability (Vero E6 [5]; 1 nM) [%] | cell viability (Vero E6 [5]; 10 nM) [%] | cell viability (Vero E6 [5]; 100 nM) [%] | cell viability (Vero E6 [5]; 1000 nM) [%] | cell viability (Vero E6 [5]; 10000 nM) [%] | relative viability EC50 (Caco-2 [6]) [µM] | relative viability EC50 (Calu-3 [7]) [µM] | relative viability EC50 (HepG2 [8]) [µM] | relative viability EC50 (U2OS [9]) [µM] | relative viability EC50 (Vero E6 [10]) [µM] | drug sensitivity score (Caco-2 [11]) | drug sensitivity score (Calu-3 [12]) | drug sensitivity score (HepG2 [13]) | drug sensitivity score (U2OS [14]) | drug sensitivity score (Vero E6 [15])
CCCC[P+](CCCC)(CCCC)Cc1ccc(NC(=O)[C@H](Cc2ccc3ccccc3c2)N/C(=N/C2CCCCC2)NC2CCCCC2)cc1 | 90.8 | 100 | 87.9 | 102 | 81.4 | 94.7 | 91.2 | 97.5 | 97.4 | 86.2 | 95.5 | 107 | 117 | 97.3 | 88.5 | 98.7 | 99.7 | 96.5 | 96.6 | 88.9 | 102 | 97.7 | 107 | 100 | 90.7 | > 10 | > 10 | > 10 | > 10 | > 10 | 0.4 | 0 | 0.1 | 0 | 0
CCCc1c(OCC(O)COc2ccc3c(=O)cc(C(=O)O)oc3c2CCC)ccc(C(C)=O)c1O (stereo not drawn) | 99.1 | 92.4 | 93.6 | 102 | 95 | 107 | 90.8 | 99.7 | 102 | 109 | 99.8 | 107 | 96.9 | 103 | 92.4 | 104 | 95.5 | 102 | 97.4 | 98.9 | 102 | 105 | 97.2 | 97.9 | 89.6 | > 10 | > 10 | > 10 | > 10 | > 10 | 0 | 0 | 0 | 0 | 0
COc1cc(Br)c(S(=O)(=O)Nc2ccc(C(F)(F)F)c(O[C@@H]3CCN(C)C3)c2)cc1OC | 102 | 100 | 101 | 95.9 | 95.9 | 103 | 94.7 | 99.3 | 98.1 | 104 | 85.4 | 107 | 93.3 | 96.7 | 91.2 | 105 | 96.3 | 95 | 98.3 | 96.6 | 91.5 | 101 | 99 | 103 | 94.9 | > 10 | > 10 | > 10 | > 10 | > 10 | 0 | 0 | 0 | 0 | 0
COc1ncc(-c2ccc3c(Nc4cc(Oc5cc(F)cc(F)c5)cc(C(=O)O)c4)c(S(=O)(=O)NC4CC4)cnc3c2)c(OC)n1 | 103 | 100 | 85 | 92.2 | 97.5 | 95.3 | 107 | 87.9 | 96.3 | 102 | 97 | 107 | 96.8 | 101 | 85.6 | 104 | 104 | 98.8 | 93.2 | 99.8 | 101 | 101 | 99.9 | 104 | 101 | > 10 | > 10 | > 10 | > 10 | > 10 | 0 | 0 | 0.2 | 0 | 0
CS(=O)(=O)Nc1ccc(Cc2noc(-c3ccc4[nH]cc(CCN)c4c3)n2)cc1 | 97.9 | 101 | 105 | 98.5 | 104 | 104 | 101 | 102 | 90.2 | 103 | 93.8 | 116 | 91.2 | 95.8 | 98 | 98.6 | 96.9 | 102 | 99.1 | 98.8 | 98.3 | 105 | 100 | 101 | 106 | > 10 | > 10 | > 10 | > 10 | > 10 | 0 | 0 | 0 | 0 | 0
Cc1ccc2c(=O)c3ccccc3n(CCCN)c2c1C | 100 | 92.8 | 91.6 | 72.7 | 28.5 | 97.8 | 102 | 104 | 81.3 | 20.6 | 99.3 | 94.2 | 102 | 38.2 | 5.4 | 100 | 102 | 96.9 | 103 | 1.3 | 96.2 | 99.9 | 91.7 | 57 | 3.7 | 1.32 | 1.6 | 0.777 | 3.33 | 1.12 | 7 | 7.3 | 12.4 | 5.3 | 10.3
Cc1ncc(Cl)cc1NCc1ccc(C(=O)N[C@@H](CC2CCCC2)C(=O)NC2CC2)s1 | 99.9 | 104 | 97.5 | 96.3 | 96.6 | 94.7 | 106 | 99.8 | 89.7 | 109 | 100 | 102 | 97.5 | 89.7 | 88.2 | 99.5 | 104 | 94.5 | 95 | 90.6 | 107 | 94.7 | 104 | 98 | 91.6 | > 10 | > 10 | > 10 | > 10 | > 10 | 0 | 0 | 0.4 | 0 | 0
Cc1noc(NS(=O)(=O)c2cccc3c(N(C)C)cccc23)c1C | 80.6 | 103 | 96.7 | 91.7 | 105 | 97.7 | 104 | 95.4 | 97.3 | 103 | 99.6 | 96 | 108 | 94.5 | 110 | 93.5 | 101 | 100 | 100 | 103 | 103 | 92.8 | 98.3 | 90.5 | 103 | > 10 | > 10 | > 10 | > 10 | > 10 | 0 | 0 | 0 | 0 | 0
O=C(O)c1ccc(CN2CCC(CN[C@@H]3C[C@H]3c3ccccc3)CC2)cc1 | 101 | 108 | 94 | 105 | 102 | 89.3 | 101 | 94.7 | 102 | 103 | 105 | 93.8 | 104 | 92.5 | 92 | 95.9 | 96.8 | 95.8 | 98.3 | 96 | 100 | 103 | 99.2 | 90.9 | 95.2 | > 10 | > 10 | > 10 | > 10 | > 10 | 0 | 0 | 0 | 0 | 0
Nc1ccc(-c2nc3ccc(-c4nc5ccc(N)cc5[nH]4)cc3[nH]2)cc1 [Ro-90-7501] | 94 | 91.6 | 96.8 | 95.3 | 99.7 | 104 | 105 | 102 | 102 | 97 | 98.3 | 98.7 | 93.4 | 79.5 | 54.6 | 105 | 94.5 | 100 | 98.5 | 100 | 93.3 | 101 | 89.7 | 98.7 | 113 | > 10 | > 10 |  | > 10 | > 10 | 0 | 0 | 4.5 | 0 | 0
COC(=O)c1c(-c2cc(OC)c(OC)c(OC)c2)c2ccnc(OCc3ncccn3)c2c(=O)n1Cc1ccnc(C)c1 [T-0156] | 96.4 | 93 | 89.6 | 99.9 | 103 | 87 | 96.4 | 90.2 | 98.5 | 101 |  |  |  |  |  | 95.6 | 103 | 96.5 | 99.3 | 100 | 96 | 94.4 | 102 | 105 | 109 | > 10 | > 10 |  | > 10 | > 10 | 0 | 0 |  | 0 | 0
CN(C)CC(c1ccc(O)cc1)C1(O)CCCCC1 (stereo not drawn) [desvenlafaxine] | 105 | 102 | 99.6 | 98.2 | 99.2 | 98.8 | 110 | 97.3 | 109 | 98.7 |  |  |  |  |  | 99.1 | 99.7 | 96.5 | 97.5 | 94.2 | 101 | 97.2 | 97.5 | 92.6 | 94.3 | > 10 | > 10 |  | > 10 | > 10 | 0 | 0 |  | 0 | 0
Cc1cccc(C)c1NC(=O)c1ccccc1C(=O)O [ftaxilide] | 94.5 | 100 | 102 | 99.8 | 104 | 103 | 106 | 98.6 | 122 | 106 |  |  |  |  |  | 102 | 105 | 98.5 | 101 | 97.2 | 107 | 102 | 99.8 | 96.3 | 100 | > 10 | > 10 |  | > 10 | > 10 | 0 | 0 |  | 0 | 0
